Assays:
Test in all cases: relative viability (nuclei count vs DMSO), 5 days (fraction); higher = more cells survive
Carboplatin = compound: C1CC(C1)(C(=O)O)C(=O)O.[NH2-].[NH2-].[Pt+2] [Carboplatin]
Method in brief: (§1)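 Viability was defined as treated-well nuclei divided by vehicle-well nuclei, with the median taken over replicate plates. Cells from lung cancer lines sat overnight at 37 °C in 1536-well plates, received five √10-spaced library-drug doses by pinning on vehicle-anchored plates, and grew 5 days without medium change before one-step fixation, permeabilisation and Hoechst staining, 4× imaging and MetaXpress nuclear counts. Only plates with control CV under 25% and at least one doubling were kept.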

GSK126 = compound: CC[C@H](C)N1C=C(C2=C(C=C(C=C21)C3=CN=C(C=C3)N4CCNCC4)C(=O)NCC5=C(C=C(NC5=O)C)C)C [GSK126]
Method in brief: as §1

MLN4924 = compound: NS(=O)(=O)OC[C@@H]1C[C@@H](n2ccc3c(N[C@H]4CCc5ccccc54)ncnc32)C[C@@H]1O [MLN4924]
Method in brief: as §1

Carboplatin + Alpelisib = compound: C1CC(C1)(C(=O)O)C(=O)O.[NH2-].[NH2-].[Pt+2] [Carboplatin] + Cc1nc(NC(=O)N2CCC[C@H]2C(N)=O)sc1-c1ccnc(C(C)(C)C(F)(F)F)c1 [Alpelisib] (partner 2 µM)
Method in brief: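 Lung cancer cell lines in 1536-well plates got either a single drug or a fixed anchor-drug dose together with five library-drug doses (not always all listed) in √10 steps, by pin tool, on the day after seeding. Nuclei were counted after 5 days, and relative viability is the treated-to-vehicle ratio of nuclei counts. Values are medians of duplicate plates.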

Cell Line | relative viability (Carboplatin; 0.08 µM) | relative viability (Carboplatin; 0.253 µM) | relative viability (Carboplatin; 0.8 µM) | relative viability (Carboplatin; 2.53 µM) | relative viability (Carboplatin; 8 µM) | relative viability (GSK126; 0.08 µM) | relative viability (GSK126; 0.253 µM) | relative viability (GSK126; 0.8 µM) | relative viability (GSK126; 2.53 µM) | relative viability (GSK126; 8 µM) | relative viability (MLN4924; 0.04 µM) | relative viability (MLN4924; 0.1265 µM) | relative viability (MLN4924; 0.4 µM) | relative viability (MLN4924; 1.265 µM) | relative viability (MLN4924; 4 µM) | relative viability (Carboplatin + Alpelisib; first compound 0.08 µM) | relative viability (Carboplatin + Alpelisib; first compound 0.253 µM) | relative viability (Carboplatin + Alpelisib; first compound 0.8 µM) | relative viability (Carboplatin + Alpelisib; first compound 2.53 µM) | relative viability (Carboplatin + Alpelisib; first compound 8 µM)
NCI-H441 | 0.957 | 1.08 | 0.925 | 1 | 0.801 | 1.23 | 0.954 | 0.986 | 1.05 | 0.995 | 0.943 | 0.822 | 0.512 | 0.148 | 0.185 | 0.896 | 0.694 | 0.643 | 0.651 | 0.692
NCI-H1395 | 1.16 | 0.885 | 0.833 | 0.749 | 0.766 | 1.03 | 0.926 | 0.893 | 1 | 0.957 | 0.868 | 0.951 | 0.618 | 0.354 | 0.381 | 1.18 | 1.03 | 0.768 | 0.68 | 0.578
NCI-H661 | 0.993 | 1.01 | 0.984 | 0.938 | 0.903 | 1.03 | 0.945 | 0.986 | 1.03 | 1 | 0.894 | 0.857 | 0.686 | 0.421 | 0.426 | 0.567 | 0.66 | 0.703 | 0.595 | 0.648
NCI-H727 | 1.11 | 0.841 | 0.94 | 0.83 | 0.671 | 1.02 | 0.946 | 0.849 | 0.997 | 1.02 | 0.844 | 0.587 | 0.5 | 0.307 | 0.326 | 0.76 | 0.483 | 0.509 | 0.514 | 0.363
NCI-H1734 | 1.07 | 1.04 | 0.991 | 1.03 | 0.875 | 1.13 | 0.981 | 0.986 | 1.03 | 1.01 | 1.02 | 0.963 | 0.306 | 0.145 | 0.155 | 0.647 | 0.757 | 0.632 | 0.67 | 0.589
EMC-BAC-2 | 1.05 | 0.942 | 1.16 | 1.2 | 0.855 | 0.978 | 0.965 | 0.984 | 0.989 | 1.16 | 0.876 | 0.906 | 0.359 | 0.243 | 0.257 | 0.816 | 0.719 | 0.762 | 0.734 | 0.714
EKVX | 1.01 | 0.984 | 0.99 | 1.05 | 0.855 | 1.02 | 1.08 | 1.02 | 1.03 | 0.982 | 0.933 | 0.914 | 0.685 | 0.238 | 0.209 | 0.908 | 0.877 | 0.743 | 0.783 | 0.87
NCI-H596 | 0.993 | 0.995 | 0.938 | 0.826 | 0.752 | 0.983 | 0.9 | 0.965 | 1.01 | 0.981 | 0.973 | 1.1 | 0.554 | 0.854 | 0.739 | 0.475 | 0.574 | 0.458 | 0.423 | 0.445
NCI-H358 | 1.25 | 1.07 | 1.06 | 0.891 | 0.928 | 1.07 | 0.965 | 0.914 | 1.05 | 1.01 | 1.02 | 0.904 | 0.327 | 0.201 | 0.213 | 1.14 | 0.881 | 0.845 | 0.824 | 0.671
LOU-NH91 | 1.16 | 0.938 | 0.96 | 0.969 | 0.936 | 0.966 | 0.978 | 0.95 | 1.06 | 0.985 | 0.997 | 1.13 | 0.929 | 0.543 | 0.563 | 0.797 | 0.731 | 0.7 | 0.688 | 0.688
Calu-6 | 1.01 | 1.03 | 0.973 | 0.851 | 0.491 | 1.1 | 1.05 | 0.954 | 1.07 | 1.03 | 0.914 | 0.653 | 0.24 | 0.141 | 0.134 | 1 | 0.913 | 1.04 | 0.856 | 0.4
NCI-H1437 | 1.03 | 0.965 | 0.966 | 0.905 | 0.868 | 1.05 | 1 | 0.945 | 0.92 | 0.919 | 0.941 | 0.988 | 0.841 | 0.423 | 0.281 | 0.988 | 0.989 | 0.929 | 0.947 | 0.828
NCI-H1703 | 1.27 | 1.1 | 0.998 | 1.05 | 1.01 | 1.21 | 0.834 | 0.96 | 1.04 | 1.13 | 0.43 | 0.314 | 0.255 | 0.136 | 0.141 | 0.373 | 0.335 | 0.417 | 0.407 | 0.421
H3255 | 0.979 | 1.11 | 1.01 | 0.939 | 0.784 | 1.04 | 1.01 | 0.993 | 1.06 | 0.963 | 0.825 | 0.721 | 0.391 | 0.246 | 0.328 | 0.685 | 0.698 | 0.673 | 0.657 | 0.575
EBC-1 | 1.07 | 0.987 | 0.97 | 0.969 | 0.851 | 1.03 | 0.966 | 0.969 | 0.978 | 0.947 | 0.855 | 0.703 | 0.283 | 0.104 | 0.131 | 0.85 | 0.827 | 0.809 | 0.799 | 0.77
NCI-H1666 | 1.03 | 1.02 | 0.987 | 0.913 | 0.797 | 0.966 | 1.03 | 0.984 | 0.95 | 1.07 | 1.02 | 0.915 | 0.632 | 0.35 | 0.38 | 1.16 | 0.909 | 0.855 | 0.773 | 0.543

Source: the supplement of paper PMC10307832
